Experimental data from US12419862B2, “Use of a cathepsin s inhibitor against the formation of anti-drug antibodies” (Hoffmann-La Roche Inc., priority 2018, dated 2025).

Key:
[1] = tested on: IgG response to murine hemi-surrogate CEA-TCB; assay: ADA against murine hemi-surrogate CEA-TCB in hIgG1 Tg mice, ELISA (Example 8); type: in vivo, C57BL/6-Tg (hIgG1,k,l) mice; settings: 40 mg/kg/day via food admix from one week before first immunization until day 28, vs vehicle
Procedure: 11-15-week-old mice C57BL/6-Tg (hIgG1,k,l) mixed gender (n=20) were purchased from Taconic (Denmark) and housed at the animal facilities in room with air-conditioned under a 12 hours light/dark cycle in macrolon boxes with enriched environment and free access to water and food. 7×10 μg of CEA-TCB (P1AE3536, huCEA binder CH1A1A/mouse CD3 binder 2C11) were injected at day 0, 4, 7, 11, 14, 18 and 21 subcutaneously in the right flank or the left flank alternatively. The dosage of (2S,4R)-4-[4-(1-methyl-1H-pyrazol-4-yl)-2-trifluoromethyl-benzenesulfonyl]-1-(1-trifluoromethyl-cyclopropanecarbonyl)-pyrrolidine-2-carboxylic acid (1-cyano-cyclopropyl)-amide consumption was 40 mg/kg/day. […]
Nunc Maxisorp flat-bottom 96 well ELISA plates were coated with 100 μl per well of huCEA IgG PGLALA (P1AD9477) or hu anti mouse CD3 (P1AE2779-001-01) respectively at 5 μg/mL in NaHCO3100 mM buffer overnight at +4° C. […] 100 μl of substrate P-nitrophenyl phosphate ready to use (Life Technologies, Cat no 002212) were added per well and after 10 min incubation at room temperature, the OD at 405 nm was read as an end-point measurement with a Versamax ELISA reader.

[2] = tested on: IgG response to murine surrogate FAP-OX40; assay: ADA against murine surrogate FAP-OX40 in wild-type mice, ELISA (Example 6); type: in vivo, C57BL/6 mice; settings: 40 mg/kg/day via food admix from one week before first immunization until day 23
Procedure: 10-week-old female mice C57BL/6 were purchased from Charles River Laboratories (Germany) and housed at the animal facilities in room with air-conditioned under a 12 hours light/dark cycle in macrolon boxes with enriched environment and free access to water and food. 12.5 mg/kg of muFAP-OX40iMab (P1AD4396-005) were injected at day 1, 4 and 8 intravenously to the group 2 (n=10 mice) and at day 1, 4, 8, 11, 15, 18 and 22 to the group 3 (n=10 mice) respectively. The dosage of (2S,4R)-4-[4-(1-methyl-1H-pyrazol-4-yl)-2-trifluoromethyl-benzenesulfonyl]-1-(1-trifluoromethyl-cyclopropanecarbonyl)-pyrrolidine-2-carboxylic acid (1-cyano-cyclopropyl)-amide consumption was 40 mg/kg/day. […]
Nunc Maxisorp flat-bottom 96 well ELISA plates were coated with 100 μl per well of FAP(28H1)-OX40(49B4) PGLALA (P1AD4523) or anti OX40 moIgG2a (P1AD4561) respectively at 5 μg/mL in NaHCO3100 mM buffer overnight at +4° C. […] 100 μl of substrate P-nitrophenyl phosphate ready to use (Life Technologies, Cat no 002212) were added per well and after 10 min incubation at room temperature, the OD at 405 nm was read as an end-point measurement with a Versamax ELISA reader.

Question: With Cn1cc(-c2ccc(S(=O)(=O)[C@@H]3C[C@@H](C(=O)NC4(C#N)CC4)N(C(=O)C4(C(F)(F)F)CC4)C3)c(C(F)(F)F)c2)cn1 [cathepsin S inhibitor, (2S,4R)-4-[4-(1-methyl-1H-pyrazol-4-yl)-2-trifluoromethyl-benzenesulfonyl]-1-(1-trifluoromethyl-cyclopropanecarbonyl)-pyrrolidine-2-carboxylic acid (1-cyano-cyclopropyl)-amide] as the molecule, how does the “ADA specific to CD3 binder (2C11) of CEA-TCB” value [1] read?
Answer: significantly reduced ADA to CD3 binder

Question: What about the “CEA-specific ADA to CEA-TCB” value [1] of the same molecule?
Answer: reduction of CEA-specific ADA was not significant

Question: And the “ADA specific to FAP (VHVL) domain of murine surrogate FAP-OX40” value [2]?
Answer: prevents ADA

Question: What about the “OX40-specific ADA to murine surrogate FAP-OX40” value [2] of the same molecule?
Answer: prevents ADA
